# Assays:
# Type in all cases: in vivo
# [1] = tested on: velvetleaf (Abutilon theophrasti); test: post-emergence herbicidal activity, velvetleaf; settings: 1 Kg/Ha, about fourteen days, read-out: post-emergence herbicidal activity (% control) ABUTH
# Procedure: (§1) This example sets forth the methods of herbicidal testing conducted on the specific compounds set forth below. Specifically, the compounds referenced below were tested for pre- and post-emergence herbicidal activity using a variety of crops and weeds. The test plants include, but are not limited to, soybean (Glycine max -- var. Winchester), field corn (Zea mays var. Pioneer 3732), wheat (Triticum aestivum var. Lew), morningglory (Ipomea lacunosa or Ipomea hederacea), velvetleaf (Abutilon theophrasti), green foxtail (Setaria viridis), Johnsongrass (Sorghum halepense), blackgrass (Aloepecurus myosuroides), common chickweed (Stellaria media), and common cocklebur (Xanthium strumarium L.).
# (§2) In the post-emergence test, seeds of the plant species named above were planted in flats containing the appropriate soil mixture where they were maintained to allow the seeds to germinate. When the plants in these flats reached the proper stage of growth, flats for the pre-emergence tests were planted in a like manner. The flats containing the post-emergence and pre-emergence test plant species were then sprayed with an appropriately concentrated water/acetone solution of test compound. Once treated the flats were maintained, along with untreated controls, for about fourteen days. All treated plants were then examined for phytotoxicity, which was expressed as percent control where 0 is no effect and 100 is complete control. Effective rates of application for the compounds of the present invention range from 0.001 to 3 kg/ha, more likely from […] to 1 Kg/ha.
# (§3) Herbicidal activity data at selected application rates are in Tables 4 and 5. The test compounds are identified by numbers correspond to those in Table 1.
# (§4) SOY is soybean, WHT is wheat, CRN is corn, ABUTH is velvetleaf, IPOSS is
# (§5) morningglory, STEME is chickweed, XANPE is cocklebur, ALOMY is blackgrass,
# (§6) Rate of application of test compound is 1 Kg/Ha. The definitions as shown under Table 4 apply to Table 5.
# [2] = tested on: common cocklebur (Xanthium strumarium L.); test: pre-emergence herbicidal activity, cocklebur; settings: 1 kg/Ha, about fourteen days, read-out: pre-emergence herbicidal activity (% control) XANPE
# Procedure: as §1, §2, §3
# (§7) Rate of application of test compound is 1 kg/Ha
# as §4
# (§8) morningglory, STEME is chickweed, XANPE is cocklebur, ALOMY is blackgrass, […]
# [3] = tested on: green foxtail (Setaria viridis); test: post-emergence herbicidal activity, green foxtail; settings: 1 Kg/Ha, about fourteen days, read-out: post-emergence herbicidal activity (% control) SETVI
# Procedure: as §1, §2, §3, §4, §5, §6
# [4] = tested on: blackgrass (Aloepecurus myosuroides); test: pre-emergence herbicidal activity, blackgrass; settings: Alopecurus myosuroides, 1 kg/Ha, about fourteen days, read-out: pre-emergence herbicidal activity (% control) ALOMY
# Procedure: as §1, §2, §3, §7, §4, §8
# [5] = tested on: common chickweed (Stellaria media); test: post-emergence herbicidal activity, chickweed; settings: 1 Kg/Ha, about fourteen days, read-out: post-emergence herbicidal activity (% control) STEME
# Procedure: as §1, §2, §3, §4, §5, §6
# [6] = tested on: soybean (Glycine max -- var. Winchester); test: pre-emergence herbicidal activity, soybean; settings: 1 kg/Ha, about fourteen days, read-out: pre-emergence herbicidal activity (% control) SOY
# Procedure: as §1, §2, §3, §7, §4, §8
# [7] = tested on: common chickweed (Stellaria media); test: pre-emergence herbicidal activity, chickweed; settings: 1 kg/Ha, about fourteen days, read-out: pre-emergence herbicidal activity (% control) STEME
# Procedure: as §1, §2, §3, §7, §4, §8
# [8] = tested on: soybean (Glycine max -- var. Winchester); test: post-emergence herbicidal activity, soybean; settings: 1 Kg/Ha, about fourteen days, read-out: post-emergence herbicidal activity (% control) SOY
# Procedure: as §1, §2, §3, §4, §5, §6
# [9] = tested on: Johnsongrass (Sorghum halepense); test: post-emergence herbicidal activity, johnsongrass; settings: 1 Kg/Ha, about fourteen days, read-out: post-emergence herbicidal activity (% control) SORHA
# Procedure: as §1, §2, §3, §4, §5, §6
# [10] = tested on: morningglory (Ipomea lacunosa or Ipomea hederacea); test: post-emergence herbicidal activity, morningglory; settings: Ipomoea, 1 Kg/Ha, about fourteen days, read-out: post-emergence herbicidal activity (% control) IPOSS
# Procedure: as §1, §2, §3, §4, §5, §6
# [11] = tested on: velvetleaf (Abutilon theophrasti); test: pre-emergence herbicidal activity, velvetleaf; settings: 1 kg/Ha, about fourteen days, read-out: pre-emergence herbicidal activity (% control) ABUTH
# Procedure: as §1, §2, §3, §7, §4, §8
# [12] = tested on: green foxtail (Setaria viridis); test: pre-emergence herbicidal activity, green foxtail; settings: 1 kg/Ha, about fourteen days, read-out: pre-emergence herbicidal activity (% control) SETVI
# Procedure: as §1, §2, §3, §7, §4, §8
# [13] = tested on: field corn (Zea mays var. Pioneer 3732); test: pre-emergence herbicidal activity, corn; settings: 1 kg/Ha, about fourteen days, read-out: pre-emergence herbicidal activity (% control) CRN
# Procedure: as §1, §2, §3, §7, §4, §8
# [14] = tested on: morningglory (Ipomea lacunosa or Ipomea hederacea); test: pre-emergence herbicidal activity, morningglory; settings: Ipomoea, 1 kg/Ha, about fourteen days, read-out: pre-emergence herbicidal activity (% control) IPOSS
# Procedure: as §1, §2, §3, §7, §4, §8
# [15] = tested on: wheat (Triticum aestivum var. Lew); test: pre-emergence herbicidal activity, wheat; settings: 1 kg/Ha, about fourteen days, read-out: pre-emergence herbicidal activity (% control) WHT
# Procedure: as §1, §2, §3, §7, §4, §8
# [16] = tested on: field corn (Zea mays var. Pioneer 3732); test: post-emergence herbicidal activity, corn; settings: 1 Kg/Ha, about fourteen days, read-out: post-emergence herbicidal activity (% control) CRN
# Procedure: as §1, §2, §3, §4, §5, §6
# [17] = tested on: wheat (Triticum aestivum var. Lew); test: post-emergence herbicidal activity, wheat; settings: 1 Kg/Ha, about fourteen days, read-out: post-emergence herbicidal activity (% control) WHT
# Procedure: as §1, §2, §3, §4, §5, §6
# [18] = tested on: common cocklebur (Xanthium strumarium L.); test: post-emergence herbicidal activity, cocklebur; settings: 1 Kg/Ha, about fourteen days, read-out: post-emergence herbicidal activity (% control) XANPE
# Procedure: as §1, §2, §3, §4, §5, §6
Structure (SMILES),activity at 1000 g/ha [1],activity at 1000 g/ha [2],activity at 1000 g/ha [3],activity at 1000 g/ha [4],activity at 1000 g/ha [5],activity at 1000 g/ha [6],activity at 1000 g/ha [7],activity at 1000 g/ha [8],activity at 1000 g/ha [9],activity at 1000 g/ha [10],activity at 1000 g/ha [11],activity at 1000 g/ha [12],activity at 1000 g/ha [13],activity at 1000 g/ha [14],activity at 1000 g/ha [15],activity at 1000 g/ha [16],activity at 1000 g/ha [17],activity at 1000 g/ha [18]
Cn1c(C(F)(F)F)cc(=O)n(-c2ccc(Cl)c3c2CN(CC(F)(F)F)C3=O)c1=O [Compound 28],100%,100%,100%,100%,100%,100%,100%,100%,100%,100%,100%,100%,100%,100%,100%,100%,100%,100%
Cn1c(C(F)(F)F)cc(=O)n(-c2ccc(Cl)c3c2CN(CC2CC2)C3=O)c1=O [Compound 29],100%,100%,100%,100%,100%,100%,100%,100%,100%,100%,100%,100%,100%,100%,100%,100%,100%,100%
Cn1c(C(F)(F)F)cc(=O)n(-c2ccc(Cl)c3c2CN(CC#N)C3=O)c1=O [Compound 30],100%,100%,100%,100%,100%,100%,100%,100%,100%,100%,100%,100%,100%,100%,100%,95%,60%,100%
COCN1Cc2c(-n3c(=O)cc(C(F)(F)F)n(C)c3=O)ccc(Cl)c2C1=O [Compound 31],100%,100%,100%,100%,100%,100%,100%,100%,100%,100%,100%,100%,100%,100%,100%,100%,100%,100%
CC(C)N1Cc2c(-n3c(=O)cc(C(F)(F)F)n(N)c3=O)ccc(Cl)c2C1=O [Compound 70],100%,100%,100%,100%,100%,100%,100%,100%,100%,100%,100%,100%,100%,100%,100%,100%,100%,100%

# Source: patent US6277847A, “Herbicidal isoindolinonyl-and 3,4-dihydroisoquinolonyl-substituted heterocycles” (FMC Corporation, priority 2000, dated 2001)
